Data published in patent US9302999B2, “Substituted triazoles as herbicides” (E. I. DU PONT DE NEMOURS AND COMPANY, priority 2012, dated 2016).

Columns and labels:
Assay type in all cases: in vivo
[1] = tested on: barnyardgrass (Echinochloa crus-galli); experiment: Test A pre-/postemergence: barnyardgrass; details: for Barnyardgrass plant response rating: Postemergence; for Plant response rating, Barnyardgrass: Preemergence
How it was run: (§1)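 Seeds were sown in loam/sand blend and sprayed preemergence (directed soil spray) and, simultaneously, postemergence at 2–10 cm, one- to two-leaf stage, using compounds in non-phytotoxic solvent with surfactant. After ~10 days in greenhouse, injury was rated visually versus untreated controls, 0 (no effect) to 100 (complete control).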

[2] = tested on: crabgrass, large (large crabgrass, Digitaria sanguinalis); experiment: Test A pre-/postemergence: crabgrass, large; details: for Crabgrass, Large plant response rating: Postemergence; for Plant response rating, Crabgrass, Large: Preemergence
How it was run: as §1

[3] = tested on: foxtail, giant (giant foxtail, Setaria faberii); experiment: Test A pre-/postemergence: foxtail, giant; details: for Foxtail, Giant plant response rating: Postemergence; for Plant response rating, Foxtail, Giant: Preemergence
How it was run: as §1

[4] = tested on: morningglory (Ipomoea spp.); experiment: Test A pre-/postemergence: morningglory; details: for Morningglory plant response rating: Postemergence; for Plant response rating, Morningglory: Preemergence
How it was run: as §1

[5] = tested on: pigweed (Amaranthus retroflexus); experiment: Test A pre-/postemergence: pigweed; details: for Pigweed plant response rating: Postemergence; for Plant response rating, Pigweed: Preemergence
How it was run: as §1

[6] = tested on: velvetleaf (Abutilon theophrasti); experiment: Test A pre-/postemergence: velvetleaf; details: for Velvetleaf plant response rating: Postemergence; for Plant response rating, Velvetleaf: Preemergence
How it was run: as §1

[7] = tested on: wheat (Triticum aestivum); experiment: Test A pre-/postemergence: wheat; details: for Wheat plant response rating: Postemergence; for Plant response rating, Wheat: Preemergence
How it was run: as §1

[8] = tested on: corn (Zea mays); experiment: Test A pre-/postemergence: corn; details: for Corn plant response rating: Postemergence; for Plant response rating, Corn: Preemergence
How it was run: as §1

[9] = tested on: rice (Oryza sativa); experiment: Test C flooded paddy test: rice; details: scale 0 to 100 (0 no effect, 100 complete control)
How it was run: (§2)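 2-leaf stage plants; pots flooded 3 cm above soil; compound applied into paddy water, depth maintained. Greenhouse 13–15 d. Visual rating vs controls, 0–100 (0 = no effect, 100 = complete control); dash = no result.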

[10] = tested on: sedge, umbrella (small-flower umbrella sedge, Cyperus difformis); experiment: Test C flooded paddy test: sedge, umbrella; details: scale 0 to 100 (0 no effect, 100 complete control)
How it was run: as §2

[11] = tested on: ducksalad (Heteranthera limosa); experiment: Test C flooded paddy test: ducksalad; details: scale 0 to 100 (0 no effect, 100 complete control)
How it was run: as §2

[12] = tested on: barnyardgrass (Echinochloa crus-galli); experiment: Test C flooded paddy test: barnyardgrass; details: scale 0 to 100 (0 no effect, 100 complete control)
How it was run: as §2

[13] = 125 g ai/ha, 0 to 100 scale, 0 is no effect, 100 is complete control
[14] = 500 g ai/ha, visual rating on 0 to 100 scale (0 no effect, 100 complete control), approximately ten days
[15] = 125 g ai/ha, 0 to 100 scale (0 no effect, 100 complete control)
[16] = 500 g ai/ha, 0 to 100 scale, 0 is no effect, 100 is complete control
[17] = Flood (flooded paddy test), 62 g ai/ha, visual rating after 13 to 15 days
[18] = Flood (flooded paddy test), 125 g ai/ha, visual rating after 13 to 15 days
[19] = Flood (flooded paddy test), 250 g ai/ha, visual rating after 13 to 15 days

Cc1nn(-c2ccc(Cl)nc2)nc1C(=O)c1cccc(C(F)(F)F)c1 [Compound 72]
Barnyardgrass plant response rating [1, 13]: 0
Barnyardgrass plant response rating [1, 14]: 10
Plant response rating, Barnyardgrass [1, 15]: 0
Plant response rating, Barnyardgrass [1, 16]: 0
Crabgrass, Large plant response rating [2, 13]: 0
Crabgrass, Large plant response rating [2, 14]: 10
Plant response rating, Crabgrass, Large [2, 15]: 0
Plant response rating, Crabgrass, Large [2, 16]: 10
Foxtail, Giant plant response rating [3, 13]: 0
Foxtail, Giant plant response rating [3, 14]: 10
Plant response rating, Foxtail, Giant [3, 15]: 0
Plant response rating, Foxtail, Giant [3, 16]: 20
Morningglory plant response rating [4, 13]: 0
Morningglory plant response rating [4, 14]: 10
Plant response rating, Morningglory [4, 15]: 0
Plant response rating, Morningglory [4, 16]: 0
Pigweed plant response rating [5, 13]: 10
Pigweed plant response rating [5, 14]: 70
Plant response rating, Pigweed [5, 15]: 0
Plant response rating, Pigweed [5, 16]: 10
Velvetleaf plant response rating [6, 13]: 0
Velvetleaf plant response rating [6, 14]: 10
Plant response rating, Velvetleaf [6, 15]: 0
Plant response rating, Velvetleaf [6, 16]: 0
Wheat plant response rating [7, 13]: 0
Wheat plant response rating [7, 14]: 0
Plant response rating, Wheat [7, 15]: 0
Plant response rating, Wheat [7, 16]: 0
Corn plant response rating [8, 13]: 0
Corn plant response rating [8, 14]: 10
Plant response rating, Corn [8, 15]: 0
Plant response rating, Corn [8, 16]: 0
Plant response rating, Rice [9, 17]: 0
Plant response rating, Rice [9, 18]: 0
Plant response rating, Rice [9, 19]: 0
Plant response rating, Rice ([9]; Flood, 31 g ai/ha): 0
Plant response rating, Sedge, Umbrella [10, 17]: 0
Plant response rating, Sedge, Umbrella [10, 18]: 0
Plant response rating, Sedge, Umbrella [10, 19]: 0
Plant response rating, Sedge, Umbrella ([10]; Flood, 31 g ai/ha): 0
Plant response rating, Ducksalad [11, 17]: 0
Plant response rating, Ducksalad [11, 18]: 0
Plant response rating, Ducksalad [11, 19]: 0
Plant response rating, Ducksalad ([11]; Flood, 31 g ai/ha): 0
Plant response rating, Barnyardgrass [12, 17]: 0
Plant response rating, Barnyardgrass [12, 18]: 0
Plant response rating, Barnyardgrass [12, 19]: 0
Plant response rating, Barnyardgrass ([12]; Flood, 31 g ai/ha): 0

Cc1nn(-c2ccc(C(F)(F)F)cc2)nc1Oc1ccnc(OCC(F)(F)F)c1 [Compound 77]
Barnyardgrass plant response rating [1, 13]: 0
Barnyardgrass plant response rating [1, 14]: 10
Plant response rating, Barnyardgrass [1, 15]: 0
Plant response rating, Barnyardgrass [1, 16]: 0
Crabgrass, Large plant response rating [2, 13]: 10
Crabgrass, Large plant response rating [2, 14]: 20
Plant response rating, Crabgrass, Large [2, 15]: 0
Plant response rating, Crabgrass, Large [2, 16]: 10
Foxtail, Giant plant response rating [3, 13]: 10
Foxtail, Giant plant response rating [3, 14]: 20
Plant response rating, Foxtail, Giant [3, 15]: 0
Plant response rating, Foxtail, Giant [3, 16]: 10
Morningglory plant response rating [4, 13]: 10
Morningglory plant response rating [4, 14]: 10
Plant response rating, Morningglory [4, 15]: 0
Plant response rating, Morningglory [4, 16]: 0
Pigweed plant response rating [5, 13]: 90
Pigweed plant response rating [5, 14]: 100
Plant response rating, Pigweed [5, 15]: 0
Plant response rating, Pigweed [5, 16]: 10
Velvetleaf plant response rating [6, 13]: 10
Velvetleaf plant response rating [6, 14]: 10
Plant response rating, Velvetleaf [6, 15]: 0
Plant response rating, Velvetleaf [6, 16]: 0
Wheat plant response rating [7, 13]: 0
Wheat plant response rating [7, 14]: 0
Plant response rating, Wheat [7, 15]: 0
Plant response rating, Wheat [7, 16]: 0
Corn plant response rating [8, 13]: 0
Corn plant response rating [8, 14]: 10
Plant response rating, Corn [8, 15]: 0
Plant response rating, Corn [8, 16]: 0
Plant response rating, Rice [9, 18]: 0
Plant response rating, Rice [9, 19]: 0
Plant response rating, Rice ([9]; Flood, 31 g ai/ha): 0
Plant response rating, Rice ([9]; Flood, 62 g ai/ha): 0
Plant response rating, Sedge, Umbrella [10, 18]: 0
Plant response rating, Sedge, Umbrella [10, 19]: 0
Plant response rating, Sedge, Umbrella ([10]; Flood, 31 g ai/ha): 0
Plant response rating, Sedge, Umbrella ([10]; Flood, 62 g ai/ha): 0
Plant response rating, Ducksalad [11, 18]: 0
Plant response rating, Ducksalad [11, 19]: 0
Plant response rating, Ducksalad ([11]; Flood, 31 g ai/ha): 0
Plant response rating, Ducksalad ([11]; Flood, 62 g ai/ha): 0
Plant response rating, Barnyardgrass [12, 18]: 0
Plant response rating, Barnyardgrass [12, 19]: 0
Plant response rating, Barnyardgrass ([12]; Flood, 31 g ai/ha): 0
Plant response rating, Barnyardgrass ([12]; Flood, 62 g ai/ha): 0

COc1nn(-c2ccc(C(F)(F)F)cc2)nc1C(O)c1ccnc(C(F)(F)F)c1 (stereo not drawn) [Compound 78]
Barnyardgrass plant response rating [1, 13]: 0
Barnyardgrass plant response rating [1, 14]: 10
Plant response rating, Barnyardgrass [1, 15]: 0
Plant response rating, Barnyardgrass [1, 16]: 20
Crabgrass, Large plant response rating [2, 13]: 10
Crabgrass, Large plant response rating [2, 14]: 20
Plant response rating, Crabgrass, Large [2, 15]: 60
Plant response rating, Crabgrass, Large [2, 16]: 80
Foxtail, Giant plant response rating [3, 13]: 10
Foxtail, Giant plant response rating [3, 14]: 30
Plant response rating, Foxtail, Giant [3, 15]: 20
Plant response rating, Foxtail, Giant [3, 16]: 70
Morningglory plant response rating [4, 13]: 0
Morningglory plant response rating [4, 14]: 40
Plant response rating, Morningglory [4, 15]: 0
Plant response rating, Morningglory [4, 16]: 10
Pigweed plant response rating [5, 13]: 50
Pigweed plant response rating [5, 14]: 90
Plant response rating, Pigweed [5, 15]: 60
Plant response rating, Pigweed [5, 16]: 70
Velvetleaf plant response rating [6, 13]: 10
Velvetleaf plant response rating [6, 14]: 20
Plant response rating, Velvetleaf [6, 15]: 10
Plant response rating, Velvetleaf [6, 16]: 20
Wheat plant response rating [7, 13]: 0
Wheat plant response rating [7, 14]: 0
Plant response rating, Wheat [7, 15]: 0
Plant response rating, Wheat [7, 16]: 0
Corn plant response rating [8, 13]: 0
Corn plant response rating [8, 14]: 10
Plant response rating, Corn [8, 15]: 0
Plant response rating, Corn [8, 16]: 0
Plant response rating, Rice [9, 18]: 0
Plant response rating, Rice [9, 19]: 0
Plant response rating, Rice ([9]; Flood, 31 g ai/ha): 0
Plant response rating, Rice ([9]; Flood, 62 g ai/ha): 0
Plant response rating, Sedge, Umbrella [10, 18]: 0
Plant response rating, Sedge, Umbrella [10, 19]: 0
Plant response rating, Sedge, Umbrella ([10]; Flood, 31 g ai/ha): 0
Plant response rating, Sedge, Umbrella ([10]; Flood, 62 g ai/ha): 0
Plant response rating, Ducksalad [11, 18]: 0
Plant response rating, Ducksalad [11, 19]: 0
Plant response rating, Ducksalad ([11]; Flood, 31 g ai/ha): 0
Plant response rating, Ducksalad ([11]; Flood, 62 g ai/ha): 0
Plant response rating, Barnyardgrass [12, 18]: 0
Plant response rating, Barnyardgrass [12, 19]: 20
Plant response rating, Barnyardgrass ([12]; Flood, 31 g ai/ha): 0
Plant response rating, Barnyardgrass ([12]; Flood, 62 g ai/ha): 0

COc1nn(-c2ccc(C(F)(F)F)cc2)nc1C(C)(O)c1ccnc(C(F)(F)F)c1 (stereo not drawn) [Compound 79]
Barnyardgrass plant response rating [1, 13]: 0
Barnyardgrass plant response rating [1, 14]: 0
Plant response rating, Barnyardgrass [1, 15]: 0
Plant response rating, Barnyardgrass [1, 16]: 0
Crabgrass, Large plant response rating [2, 13]: 0
Crabgrass, Large plant response rating [2, 14]: 0
Plant response rating, Crabgrass, Large [2, 15]: 0
Plant response rating, Crabgrass, Large [2, 16]: 0
Foxtail, Giant plant response rating [3, 13]: 0
Foxtail, Giant plant response rating [3, 14]: 10
Plant response rating, Foxtail, Giant [3, 15]: 0
Plant response rating, Foxtail, Giant [3, 16]: 0
Morningglory plant response rating [4, 13]: 0
Morningglory plant response rating [4, 14]: 0
Plant response rating, Morningglory [4, 15]: 0
Plant response rating, Morningglory [4, 16]: 0
Pigweed plant response rating [5, 13]: 0
Pigweed plant response rating [5, 14]: 0
Plant response rating, Pigweed [5, 15]: 0
Plant response rating, Pigweed [5, 16]: 0
Velvetleaf plant response rating [6, 13]: 0
Velvetleaf plant response rating [6, 14]: 0
Plant response rating, Velvetleaf [6, 15]: 0
Plant response rating, Velvetleaf [6, 16]: 0
Wheat plant response rating [7, 13]: 0
Wheat plant response rating [7, 14]: 0
Plant response rating, Wheat [7, 15]: 0
Plant response rating, Wheat [7, 16]: 0
Corn plant response rating [8, 13]: 0
Corn plant response rating [8, 14]: 0
Plant response rating, Corn [8, 15]: 0
Plant response rating, Corn [8, 16]: 0
Plant response rating, Rice [9, 18]: 0
Plant response rating, Rice [9, 19]: 0
Plant response rating, Rice ([9]; Flood, 31 g ai/ha): 0
Plant response rating, Rice ([9]; Flood, 62 g ai/ha): 0
Plant response rating, Sedge, Umbrella [10, 18]: 0
Plant response rating, Sedge, Umbrella [10, 19]: 0
Plant response rating, Sedge, Umbrella ([10]; Flood, 31 g ai/ha): 0
Plant response rating, Sedge, Umbrella ([10]; Flood, 62 g ai/ha): 0
Plant response rating, Ducksalad [11, 18]: 0
Plant response rating, Ducksalad [11, 19]: 0
Plant response rating, Ducksalad ([11]; Flood, 31 g ai/ha): 0
Plant response rating, Ducksalad ([11]; Flood, 62 g ai/ha): 0
Plant response rating, Barnyardgrass [12, 18]: 0
Plant response rating, Barnyardgrass [12, 19]: 0
Plant response rating, Barnyardgrass ([12]; Flood, 31 g ai/ha): 0
Plant response rating, Barnyardgrass ([12]; Flood, 62 g ai/ha): 0
